Reference: the Kinase Knowledgebase extract (Sharma et al. 2016)

Experiments:
PIK3CA (human) = PIK3CA (human) (UniProt P42336); experiment: Inhibition of PIK3CA Kinase Activity
PIK3CD (Human) = PIK3CD (Human) (UniProt O00329); experiment: Inhibition of PIK3CD Kinase Activity
PIK3CG (human) = PIK3CG (human) (UniProt P48736); experiment: Inhibition of PIK3CG Kinase Activity
PIK3CB (Human) = PIK3CB (Human) (UniProt P42338); experiment: Inhibition of PIK3CB Kinase Activity
Chain of PIK3CB (Human) (P42338 whole entry, looked up): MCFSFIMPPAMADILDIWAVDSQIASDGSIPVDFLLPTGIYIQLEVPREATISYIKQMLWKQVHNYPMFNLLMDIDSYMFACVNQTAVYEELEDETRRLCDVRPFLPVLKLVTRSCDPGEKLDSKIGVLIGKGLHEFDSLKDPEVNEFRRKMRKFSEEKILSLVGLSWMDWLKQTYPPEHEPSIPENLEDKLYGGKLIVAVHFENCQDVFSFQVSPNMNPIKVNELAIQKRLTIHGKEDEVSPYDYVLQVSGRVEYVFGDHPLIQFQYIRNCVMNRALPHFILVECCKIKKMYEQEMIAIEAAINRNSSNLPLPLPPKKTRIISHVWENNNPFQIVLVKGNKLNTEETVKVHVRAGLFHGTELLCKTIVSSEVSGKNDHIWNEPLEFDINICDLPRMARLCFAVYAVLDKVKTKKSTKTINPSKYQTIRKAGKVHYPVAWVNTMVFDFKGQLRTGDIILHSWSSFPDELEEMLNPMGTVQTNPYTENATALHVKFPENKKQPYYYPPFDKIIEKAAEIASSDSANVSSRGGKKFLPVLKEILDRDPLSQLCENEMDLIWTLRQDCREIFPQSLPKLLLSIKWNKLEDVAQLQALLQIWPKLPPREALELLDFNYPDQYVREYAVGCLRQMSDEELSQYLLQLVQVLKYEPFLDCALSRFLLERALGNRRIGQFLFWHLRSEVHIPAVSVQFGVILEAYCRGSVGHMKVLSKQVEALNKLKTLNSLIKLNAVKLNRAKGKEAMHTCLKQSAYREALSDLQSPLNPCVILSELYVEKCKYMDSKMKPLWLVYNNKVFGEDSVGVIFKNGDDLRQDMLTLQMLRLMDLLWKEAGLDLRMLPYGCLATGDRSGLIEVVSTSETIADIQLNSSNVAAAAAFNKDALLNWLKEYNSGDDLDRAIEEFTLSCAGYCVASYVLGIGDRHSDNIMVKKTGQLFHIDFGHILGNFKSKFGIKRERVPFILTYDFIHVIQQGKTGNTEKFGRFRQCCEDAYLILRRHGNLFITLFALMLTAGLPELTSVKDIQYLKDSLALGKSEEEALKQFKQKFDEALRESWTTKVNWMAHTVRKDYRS

Chain of PIK3CA (human) (P42336 whole entry, looked up): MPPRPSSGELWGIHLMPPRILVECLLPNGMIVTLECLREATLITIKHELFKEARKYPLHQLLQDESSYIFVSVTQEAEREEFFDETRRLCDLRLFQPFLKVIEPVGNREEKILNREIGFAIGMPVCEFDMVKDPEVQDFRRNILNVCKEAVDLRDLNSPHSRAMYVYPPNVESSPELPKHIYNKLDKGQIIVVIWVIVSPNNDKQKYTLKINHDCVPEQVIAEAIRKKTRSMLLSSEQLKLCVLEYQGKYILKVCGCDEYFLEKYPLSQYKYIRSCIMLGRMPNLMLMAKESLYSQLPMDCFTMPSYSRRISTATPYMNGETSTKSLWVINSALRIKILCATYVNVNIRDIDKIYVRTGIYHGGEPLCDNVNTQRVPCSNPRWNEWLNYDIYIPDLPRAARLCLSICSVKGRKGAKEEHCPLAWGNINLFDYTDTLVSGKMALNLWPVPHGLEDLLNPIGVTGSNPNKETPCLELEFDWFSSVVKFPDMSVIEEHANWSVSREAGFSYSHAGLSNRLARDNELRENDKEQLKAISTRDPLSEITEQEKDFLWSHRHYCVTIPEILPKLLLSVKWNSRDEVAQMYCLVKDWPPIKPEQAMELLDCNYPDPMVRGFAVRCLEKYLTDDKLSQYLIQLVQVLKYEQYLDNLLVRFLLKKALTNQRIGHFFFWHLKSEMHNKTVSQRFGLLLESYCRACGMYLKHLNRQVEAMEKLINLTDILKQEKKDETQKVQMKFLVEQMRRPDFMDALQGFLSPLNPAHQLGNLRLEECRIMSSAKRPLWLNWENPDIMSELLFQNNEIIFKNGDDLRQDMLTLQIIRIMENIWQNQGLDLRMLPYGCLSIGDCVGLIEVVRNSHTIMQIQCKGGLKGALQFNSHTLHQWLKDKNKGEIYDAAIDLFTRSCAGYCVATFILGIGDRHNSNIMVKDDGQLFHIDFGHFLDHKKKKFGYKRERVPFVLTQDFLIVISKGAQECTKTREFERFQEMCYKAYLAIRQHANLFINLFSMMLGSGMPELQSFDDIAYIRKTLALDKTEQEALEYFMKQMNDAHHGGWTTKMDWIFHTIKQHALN
Chain of PIK3CG (human) (P48736 whole entry, looked up): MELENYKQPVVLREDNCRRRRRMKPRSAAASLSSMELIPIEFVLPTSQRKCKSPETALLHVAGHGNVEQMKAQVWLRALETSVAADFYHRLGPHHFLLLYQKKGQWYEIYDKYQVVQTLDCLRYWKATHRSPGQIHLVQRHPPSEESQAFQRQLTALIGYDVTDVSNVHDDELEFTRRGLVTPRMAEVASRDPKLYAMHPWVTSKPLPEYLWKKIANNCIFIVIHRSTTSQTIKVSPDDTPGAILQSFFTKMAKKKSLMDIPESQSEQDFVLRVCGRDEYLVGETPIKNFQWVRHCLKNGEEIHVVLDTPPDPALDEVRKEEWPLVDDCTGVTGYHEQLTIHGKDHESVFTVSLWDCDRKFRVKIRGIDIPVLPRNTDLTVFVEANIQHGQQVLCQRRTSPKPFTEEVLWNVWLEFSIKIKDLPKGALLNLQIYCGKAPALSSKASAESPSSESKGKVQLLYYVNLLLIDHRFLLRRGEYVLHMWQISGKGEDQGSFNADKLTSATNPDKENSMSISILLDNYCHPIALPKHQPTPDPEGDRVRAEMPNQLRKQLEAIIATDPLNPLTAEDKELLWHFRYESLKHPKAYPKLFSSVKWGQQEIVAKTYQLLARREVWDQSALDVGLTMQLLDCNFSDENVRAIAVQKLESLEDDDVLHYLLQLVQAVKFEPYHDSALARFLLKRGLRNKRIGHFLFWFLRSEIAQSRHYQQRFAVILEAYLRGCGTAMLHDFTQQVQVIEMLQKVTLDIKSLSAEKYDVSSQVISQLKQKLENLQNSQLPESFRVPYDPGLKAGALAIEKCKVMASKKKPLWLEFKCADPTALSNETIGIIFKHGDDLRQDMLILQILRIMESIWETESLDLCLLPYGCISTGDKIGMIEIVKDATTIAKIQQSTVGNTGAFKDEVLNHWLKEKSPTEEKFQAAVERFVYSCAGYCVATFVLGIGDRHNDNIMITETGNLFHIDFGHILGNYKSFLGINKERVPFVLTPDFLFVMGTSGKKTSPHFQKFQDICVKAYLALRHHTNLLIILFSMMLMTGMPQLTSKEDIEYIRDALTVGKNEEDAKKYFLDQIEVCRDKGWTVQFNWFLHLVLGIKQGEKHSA
Chain of PIK3CD (Human) (O00329 whole entry, looked up): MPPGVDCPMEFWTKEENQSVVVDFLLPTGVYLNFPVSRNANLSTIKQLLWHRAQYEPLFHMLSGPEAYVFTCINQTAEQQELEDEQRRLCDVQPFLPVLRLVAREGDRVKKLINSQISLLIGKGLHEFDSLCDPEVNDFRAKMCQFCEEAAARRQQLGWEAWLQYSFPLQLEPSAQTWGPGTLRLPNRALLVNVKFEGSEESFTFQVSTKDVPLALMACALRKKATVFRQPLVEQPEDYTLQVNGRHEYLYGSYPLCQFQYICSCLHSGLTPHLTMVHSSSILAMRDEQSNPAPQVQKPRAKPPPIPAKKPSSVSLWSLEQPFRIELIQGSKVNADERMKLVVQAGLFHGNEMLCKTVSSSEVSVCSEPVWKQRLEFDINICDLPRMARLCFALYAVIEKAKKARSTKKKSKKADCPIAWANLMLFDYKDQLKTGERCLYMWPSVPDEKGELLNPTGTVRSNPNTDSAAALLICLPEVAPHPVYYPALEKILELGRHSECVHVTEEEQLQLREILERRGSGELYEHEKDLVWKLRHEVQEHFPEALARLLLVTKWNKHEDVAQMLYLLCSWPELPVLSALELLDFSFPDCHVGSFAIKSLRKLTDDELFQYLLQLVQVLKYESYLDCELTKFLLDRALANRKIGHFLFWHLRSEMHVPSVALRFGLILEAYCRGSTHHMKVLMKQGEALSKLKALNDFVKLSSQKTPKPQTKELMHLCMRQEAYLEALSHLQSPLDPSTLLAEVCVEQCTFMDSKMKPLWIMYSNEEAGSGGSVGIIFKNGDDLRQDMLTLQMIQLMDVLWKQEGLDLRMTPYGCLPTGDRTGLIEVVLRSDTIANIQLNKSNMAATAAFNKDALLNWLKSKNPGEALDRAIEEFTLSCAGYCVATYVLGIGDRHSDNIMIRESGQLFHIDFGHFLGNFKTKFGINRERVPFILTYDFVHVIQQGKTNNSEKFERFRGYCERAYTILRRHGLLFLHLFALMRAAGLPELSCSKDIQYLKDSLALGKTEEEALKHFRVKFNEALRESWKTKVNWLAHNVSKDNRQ

Row | IC50 (PIK3CA (human)) [nM] | IC50 (PIK3CD (Human)) [nM] | IC50 (PIK3CG (human)) [nM] | IC50 (PIK3CB (Human)) [nM] | SMILES
1 | > 2000 | 50 | > 2000 | > 2000 | O=c1c2c(Cl)cccc2nc(CSc2ncnc3[nH]cnc23)n1-c1ccccc1-c1ccccc1
2 | 50 |  | > 10000 | 50 | Cc1cc(NCc2ccccc2)c2nc(N3CCOCC3)cc(=O)n2c1
3 | 20 |  |  | 20 | Cc1cc(F)ccc1Oc1cccc2c(=O)cc(N3CCOCC3)[nH]c12

Row | SMILES | IC50 (PIK3CA (human)) [nM] | IC50 (PIK3CD (Human)) [nM] | IC50 (PIK3CG (human)) [nM] | IC50 (PIK3CB (Human)) [nM]
4 | O=c1c(O)c(-c2ccc(O)c(O)c2)oc2cc(O)cc(O)c12 | 3800 |  |  | 
